US20060002932A1, “Methods and compositions for enhancement of immunity by in vivo depletion of immunosuppressive cell activity” (priority 2004, published 2006)

Key:
[1] = system: CD4^+/CD25^+ T cells of study subjects; experiment: Treg functional evaluation (suppression of anti-CD3/CD28 activated indicator T cells); assay type: in vivo, human; conditions: CD4^+/CD25^+ T cells isolated prior to vs 4 days after treatment
Description: The suppressive activity of Treg isolated from PBMC of study subjects prior to and 4 days after […] administration was analyzed, as described previously^25. CD4^+/CD25^+ T cells were isolated from the PBMC of study subjects using magnetic bead separation techniques. Cells were washed with PBS, resuspended in complete RPMI 1640 medium, and placed into 96-well round bottom plates pre-coated with anti-CD3/CD28 antibodies (0.4 μg/well) (Caltag). CD4^+/CD25^− cells were plated at 2.0×10^4/well alone or in combination with CD4^+/CD25^+ cells in triplicate wells at a ratio of 1:2 (CD4^+/CD25^−:CD4^+CD25^+). On day 5, 1 μCi of ^3H thymidine was added for the final 16 hr of the cultures. Cells were then harvested on glass fiber filters and assessed for uptake of radiolabeled thymidine.

[2] = system: CD4^+ T-cell populations with increasing densities of CD25; experiment: 7-AAD staining of CD4+ T-cell populations; assay type: cell-based, human
[3] = system: CD4^+CD25^− and CD4^+CD25^int cells; experiment: MTT cytotoxicity assay on CD25 negative/intermediate CD4+ T cells; assay type: cell-based, human
Description: After 48 hours of incubation, 20 μL MTT from a 5 mg/mL stock was added and incubation was continued for another 4 hours. The formazan crystals were solubilized by adding 100 μL isopropanol/0.1 M hydrochloric acid and incubating at 37° C. for 2 hours. The absorbance of the formazan product was measured on an enzyme-linked immunosorbent assay (ELISA) plate reader at 570 nm.
Interferon-γ and IL-4 ELISPOT analyses were performed using PBMC obtained prior to, during, and after vaccination. PBMC were cultured overnight in complete RPMI 1640 medium. CD4^+ and CD8^+ T cells were isolated from PBMC by negative depletion (Miltenyi). After blocking, 1×10^5 T cells and 1×10^4 RNA-transfected DC were added to each well of 96-well nitrocellulose plates (Multiscreen-IP, Millipore) precoated with 2 μg/ml Interferon-γ capture antibody (Endogen) or with IL-4 capture antibody (BD Biosciences Pharmingen). Plates were incubated for 20 hours at 37° C., and biotinylated Interferon-γ detection antibody (Endogen) or biotinylated IL-4 antibody (BD Biosciences Pharmingen) was added to each well. […] After washing, spots were counted using an automated ELISPOT reader (Carl Zeiss). […] Then, 50 μl of supernatant was harvested, and release of ^51Cr was measured with a scintillation counter. […] Incorporation of thymidine was determined using a liquid scintillation counter.

denileukin diftitox [DAB389IL-2] was tested, and the Treg-mediated immunosuppressive activity [1] was “abrogation of Treg-mediated immunosuppressive activity in vivo”, the “7-AAD staining of other CD4^+ T cells with lower or no CD25 expression” value [2] was “only background levels of 7-AAD staining” and the “concentration giving optimal killing of CD4^+/CD25^high Treg” value ([2]; 7-AAD staining) was 5 nM. For the same substance, the “concentration above which cell death occurred in CD4^+CD25^− and CD4^+CD25^int cells” value [3] was “higher than 10 nM” and the “cell death of CD4^+CD25^− and CD4^+CD25^int cells” value ([3]; concentrations up to 10 nM) was “did not result in significant cell death”.
